Key:
ORYSAT (Rice, Tebonnet) = experiment: Preemergence herbicidal evaluation; type: in vivo, Oryza sativa, (L.) Tebonnet; settings: preemergence, rated 4-5 weeks after treatment
ZEAMX (Corn, Field) [1] = experiment: Preemergence herbicidal evaluation; type: in vivo, Zea mays, L.; settings: preemergence, rated 4-5 weeks after treatment
CYPIR (Cyperus iria) = experiment: Flooded paddy, preemergence weed control; type: in vivo; settings: rated 3-4 weeks after treatment, 0-9 rating scale
Procedure, shortened: (§1)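 Preemergence, flooded: propagules planted at 0.5 cm depth in silt loam, water level maintained at 1.5 to 3 cm over soil, containers kept on greenhouse benches. Activity scored 0-9 by eye relative to a control plant.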

GALAP (Galium aparine) [2] = experiment: Postemergence herbicidal evaluation; type: in vivo
Procedure, shortened: (§2)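 Visual 0–9 injury scores versus control plants, covering stand, vigour, malformation, size, chlorosis and general appearance, taken four to five weeks post-spray and averaged over replicate tests. Plants were sprayed at roughly two weeks old and held on greenhouse benches.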

[3] = test system: ECHCG (Echinochloa crus-galli); experiment: Postemergence herbicidal evaluation; type: in vivo, (L.) Beau
Procedure, shortened: as §2

[4] = test system: TRZAWR (Wheat, Winter, cv Riband); experiment: Preemergence herbicidal evaluation; type: in vivo, Triticum aestivum; settings: preemergence, rated 4-5 weeks after treatment
Procedure, shortened: (§3)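 Visual 0-9 rating versus untreated control, taken four to five weeks post-treatment, scoring stand, vigor, malformation, size, chlorosis and overall appearance. Compound applied as aqueous acetone spray to freshly seeded soil cups, then kept under standard greenhouse care.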

[5] = test system: CHEAL (Chenopodium album); experiment: Postemergence herbicidal evaluation; type: in vivo, L.
Procedure, shortened: as §2

[6] = test system: CASOB (Cassia obtusifolia); experiment: Postemergence herbicidal evaluation; type: in vivo, L.
Procedure, shortened: as §2

[7] = test system: AMBEL (Ambrosia artemisifolia); experiment: Postemergence herbicidal evaluation; type: in vivo, L.
Procedure, shortened: as §2

[8] = test system: CHEAL (Chenopodium album); experiment: Preemergence herbicidal evaluation; type: in vivo, L.; settings: preemergence, rated 4-5 weeks after treatment
Procedure, shortened: as §3

[9] = test system: CASOB (Cassia obtusifolia); experiment: Preemergence herbicidal evaluation; type: in vivo, L.; settings: preemergence, rated 4-5 weeks after treatment
Procedure, shortened: as §3

[10] = test system: AMBEL (Ambrosia artemisifolia); experiment: Preemergence herbicidal evaluation; type: in vivo, L.; settings: preemergence, rated 4-5 weeks after treatment
Procedure, shortened: as §3

GALAP (Galium aparine) [11] = experiment: Preemergence herbicidal evaluation; type: in vivo; settings: preemergence, rated 4-5 weeks after treatment
Procedure, shortened: as §3

[12] = test system: ABUTH (Abutilon theophrasti); experiment: Postemergence herbicidal evaluation; type: in vivo, Medic.
Procedure, shortened: as §2

[13] = test system: IPOHE (Ipomoea hederacea); experiment: Postemergence herbicidal evaluation; type: in vivo, (L.) Jacq.
Procedure, shortened: as §2

[14] = test system: CYPSE (Cyperus serotinus); experiment: Flooded paddy, preemergence weed control; type: in vivo, Rottb.; settings: rated 3-4 weeks after treatment, 0-9 rating scale
Procedure, shortened: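 Herbicidal effect was scored visually on a 0–9 scale against an untreated control 3–4 weeks after treatment. Compounds were applied preemergence as 50/50 v/v aqueous/acetone mixtures into flood water (1.5–3 cm deep over silt loam), at roughly 0.0080 to 0.1250 kg/ha active ingredient.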

[15] = test system: SAGPY (Sagittaria pygmaea); experiment: Flooded paddy, preemergence weed control; type: in vivo, L.; settings: rated 3-4 weeks after treatment, 0-9 rating scale
Procedure, shortened: as §1

[16] = test system: GLXMAW (Soybean, Williams); experiment: Preemergence herbicidal evaluation; type: in vivo, Glycine max, (L.) Merr. cv Williams; settings: preemergence, rated 4-5 weeks after treatment
[17] = test system: ECHORC (Echinochloa oryzoides); experiment: Flooded paddy, preemergence weed control; type: in vivo, Echinochloa oryzoides (Ard.) Fritsch.; settings: rated 3-4 weeks after treatment, 0-9 rating scale
Procedure, shortened: as §1

[18] = test system: IPOHE (Ipomoea hederacea); experiment: Preemergence herbicidal evaluation; type: in vivo, (L.) Jacq.; settings: preemergence, rated 4-5 weeks after treatment
ZEAMX (Corn, Field) [19] = experiment: Postemergence herbicidal evaluation; type: in vivo, Zea mays, L.
Procedure, shortened: as §2

[20] = test system: GLXMAW (Soybean, Williams); experiment: Postemergence herbicidal evaluation; type: in vivo, Glycine max, (L.) Merr. cv Williams
Procedure, shortened: as §2

## Cc1cc(C)c(-c2nsc3ccc(-n4c(=O)cc(C(F)(F)F)n(C)c4=O)cc23)s1 [Compound 27, 3-[3-(3,5-dimethyl-2-thienyl)-1,2-benzisothiazol-5-yl]-1-methyl-6-(trifluoromethyl)uracil]
ORYSAT (Rice, Tebonnet); Rate 0.0620 kg/ha
  ORYSAT preemergence herbicidal rating: 1.0
ORYSAT (Rice, Tebonnet); Rate 0.1250 kg/ha
  ORYSAT preemergence herbicidal rating: 2.0
ORYSAT (Rice, Tebonnet); Rate 0.2500 kg/ha
  ORYSAT preemergence herbicidal rating: 1.0
ZEAMX (Corn, Field) [1]; Rate 0.0620 kg/ha
  ZEAMX preemergence herbicidal rating: 3.0
ZEAMX (Corn, Field) [1]; Rate 0.1250 kg/ha
  ZEAMX preemergence herbicidal rating: 3.0
ZEAMX (Corn, Field) [1]; Rate 0.2500 kg/ha
  ZEAMX preemergence herbicidal rating: 3.0
CYPIR (Cyperus iria); rate 0.0080 kg/ha
  herbicidal rating, CYPIR: 4.5
CYPIR (Cyperus iria); rate 0.0320 kg/ha
  herbicidal rating, CYPIR: 9.0
CYPIR (Cyperus iria); rate 0.1250 kg/ha
  herbicidal rating, CYPIR: 9.0
GALAP (Galium aparine) [2]; rate 0.0320 kg/ha
  Postemergence herbicidal rating, GALAP: 2.0
GALAP (Galium aparine) [2]; rate 0.0620 kg/ha
  Postemergence herbicidal rating, GALAP: 4.0
[3]; rate 0.0320 kg/ha
  Postemergence herbicidal rating, ECHCG: 4.0
[3]; rate 0.0620 kg/ha
  Postemergence herbicidal rating, ECHCG: 5.0
[4]; Rate 0.0620 kg/ha
  TRZAWR preemergence herbicidal rating: 2.0
[4]; Rate 0.1250 kg/ha
  TRZAWR preemergence herbicidal rating: 2.0
[4]; Rate 0.2500 kg/ha
  TRZAWR preemergence herbicidal rating: 2.0
[5]; rate 0.0320 kg/ha
  Postemergence herbicidal rating, CHEAL: 9.0
[5]; rate 0.0620 kg/ha
  Postemergence herbicidal rating, CHEAL: 9.0
[6]; rate 0.0320 kg/ha
  Postemergence herbicidal rating, CASOB: 3.0
[6]; rate 0.0620 kg/ha
  Postemergence herbicidal rating, CASOB: 3.0
[7]; rate 0.0320 kg/ha
  Postemergence herbicidal rating, AMBEL: 9.0
[7]; rate 0.0620 kg/ha
  Postemergence herbicidal rating, AMBEL: 9.0
[8]; Rate 0.0620 kg/ha
  CHEAL preemergence herbicidal rating: 9.0
[8]; Rate 0.1250 kg/ha
  CHEAL preemergence herbicidal rating: 9.0
[8]; Rate 0.2500 kg/ha
  CHEAL preemergence herbicidal rating: 9.0
[9]; Rate 0.0620 kg/ha
  CASOB preemergence herbicidal rating: 1.0
[9]; Rate 0.1250 kg/ha
  CASOB preemergence herbicidal rating: 5.0
[9]; Rate 0.2500 kg/ha
  CASOB preemergence herbicidal rating: 4.0
[10]; Rate 0.0620 kg/ha
  AMBEL preemergence herbicidal rating: 5.0
[10]; Rate 0.1250 kg/ha
  AMBEL preemergence herbicidal rating: 5.0
[10]; Rate 0.2500 kg/ha
  AMBEL preemergence herbicidal rating: 9.0
GALAP (Galium aparine) [11]; Rate 0.0620 kg/ha
  GALAP preemergence herbicidal rating: 9.0
GALAP (Galium aparine) [11]; Rate 0.1250 kg/ha
  GALAP preemergence herbicidal rating: 7.0
GALAP (Galium aparine) [11]; Rate 0.2500 kg/ha
  GALAP preemergence herbicidal rating: 8.0
[12]; rate 0.0320 kg/ha
  Postemergence herbicidal rating, ABUTH: 9.0
[12]; rate 0.0620 kg/ha
  Postemergence herbicidal rating, ABUTH: 9.0
[13]; rate 0.0320 kg/ha
  Postemergence herbicidal rating, IPOHE: 9.0
[13]; rate 0.0620 kg/ha
  Postemergence herbicidal rating, IPOHE: 9.0
[14]; rate 0.0080 kg/ha
  herbicidal rating, CYPSE: 0.0
[14]; rate 0.0320 kg/ha
  herbicidal rating, CYPSE: 4.5
[14]; rate 0.1250 kg/ha
  herbicidal rating, CYPSE: 6.0
[15]; rate 0.0080 kg/ha
  herbicidal rating, SAGPY: 0.0
[15]; rate 0.0320 kg/ha
  herbicidal rating, SAGPY: 1.7
[15]; rate 0.1250 kg/ha
  herbicidal rating, SAGPY: 8.3
[16]; Rate 0.0620 kg/ha
  GLXMAW preemergence herbicidal rating: 1.0
[16]; Rate 0.1250 kg/ha
  GLXMAW preemergence herbicidal rating: 2.0
[16]; Rate 0.2500 kg/ha
  GLXMAW preemergence herbicidal rating: 1.0
[17]; rate 0.0080 kg/ha
  herbicidal rating, ECHORC: 6.5
[17]; rate 0.0320 kg/ha
  herbicidal rating, ECHORC: 9.0
[17]; rate 0.1250 kg/ha
  herbicidal rating, ECHORC: 9.0
[18]; Rate 0.1250 kg/ha
  IPOHE preemergence herbicidal rating: 4.0
[18]; Rate 0.2500 kg/ha
  IPOHE preemergence herbicidal rating: 3.0
ZEAMX (Corn, Field) [19]; rate 0.0320 kg/ha
  Postemergence herbicidal rating, ZEAMX: 5.0
ZEAMX (Corn, Field) [19]; rate 0.0620 kg/ha
  Postemergence herbicidal rating, ZEAMX: 5.0
[20]; rate 0.0320 kg/ha
  Postemergence herbicidal rating, GLXMAW: 6.5
[20]; rate 0.0620 kg/ha
  Postemergence herbicidal rating, GLXMAW: 6.0

Reference: patent US6706663B2, “Herbicidal 3-heterocyclic substituted benzisothiazole and benzisoxazole compounds” (Wyeth, priority 2000, dated 2004)
